The text below walks through data of US12529029B2, “Cell culture medium comprising small peptides” (LIFE TECHNOLOGIES CORPORATION, priority 2010, dated 2026).

The nature of data set [1]: physchem. The data set is classed as physicochemical. As for the experimental part:
An exemplary cell culture medium containing the dipeptides alanyl tyrosine (AlaTyr) and alanyl cysteine (which forms a disulfide dimer, [AlaCys]2) was prepared. Specifically, the dipeptides, alanyl tyrosine and alanyl cysteine were added as dry powder to an aqueous basal cell culture medium containing glucose and a mixture of concentrated amino acids and mixed until dissolved. […].

The conditions of data set [2]: 25° C., by way of comparison; cited from earlier work.

Converted amounts (≈) assume the structure as drawn. Where a SMILES comes first, the peptide text is derived from it. Bridges are numbered along the chain shown (N, C = ends). Roman numbers before positions name the chains, in order.

By solubility is commonly meant the concentration that dissolves in the medium under given conditions. In turn, `C[C@H](N)C(=O)N[C@@H](Cc1ccc(O)cc1)C(=O)O` [AlaTyr, alanyl tyrosine] (H-Ala-Tyr-OH) yielded a solubility in data set [1] of approximately 15.4 mg/mL (≈ 61 mM).
For the molecule `N[C@@H](CSSC[C@H](N)C(=O)O)C(=O)O` [L-Cystine], the solubility in water result in data set [2] is given as “about 0.11 g/L”.
The molecule `C[C@H](N)C(=O)N[C@@H](CSSC[C@H](NC(=O)[C@H](C)N)C(=O)O)C(=O)O` [[AlaCys]2 dimer, N,N′-di-L-Alanyl-L-Cystine] (I: H-Ala-Cys-OH / II: H-Ala-Cys-OH; disulfide I:2-II:2) displayed a solubility in data set [1] of approximately 8.7 mg/mL (≈ 22.7 mM).
